{"source": "patent US20160008298A1", "about": "“XANTHOHUMOL-BASED COMPOUNDS AND COMPOSITIONS THEREOF, AND METHODS OF MAKING AND USING THE SAME” (Oregon State University, priority 2014, published 2016)", "key": {"[1]": {"test_system": "mitochondrial transmembrane potential in C2C12 cells", "experiment": "JC-1 assay of mitochondrial transmembrane potential", "format": "cell-based, mouse", "settings": "2.5 μM", "method": "Cells were plated at a density of 80,000 cells per well in black 96-well plates and incubated for 24 hours at 37° C. (5% CO2). They were then treated with fresh solutions of various concentrations of XN, DXN or TXN in growth medium. The final concentrations of XN, DXN, TXN were 1, 2, 5, 8, 25, 50 μM, all in quadruplicate wells, in the 96-well plates. After one hour of exposure to the compounds at 37° C. (5% CO2), the cells were treated with 10 μL of a JC-1 staining solution (freshly prepared by diluting 11 fold 100 μL of the JC-1 agent furnished from the assay kit). After 15 to 30 minutes of incubation (37° C., 5% CO2), the cells were washed three times with the Cell-Based Assay Buffer (prepared by dissolving three buffer tablets of the kit in 300 mL of MilliQ water). The plates were then analyzed by a fluorescent plate reader (SpectraMax Gemini XS) at 560-595 nm and 485-535 nm.\nJC-1 can selectively enter into mitochondria and reversibly change color from green to red as the membrane potential increases. In healthy cells with high mitochondrial transmembrane potential, JC-1 spontaneously forms complexes known as J-aggregates with intense red fluorescence with excitation and emission at 560 nm and 595 nm, respectively. […] The ratio of fluorescence intensity of J-aggregates to fluorescence intensity of J-monomers can be used as an indicator of cell heath or mitochondrial state. […] A decrease in the values of the ratios compared to the control is indicative of an alteration in the potential across the mitochondrial membrane."}, "plasma membrane": {"test_system": "plasma membrane", "settings": "cited from earlier work"}, "mice": {"test_system": "mice", "settings": "mouse; cited from earlier work"}, "[2]": {"test_system": "C2C12 skeletal muscle cells", "experiment": "Seahorse OCR and ECAR measurements after oligomycin", "format": "cell-based, mouse", "settings": "oligomycin 1 μM; for ECAR plateau after injection of oligomycin: % pre oligomycin values", "description": "OCR and ECAR measurements were performed with a Seahorse XF 24 Analyzer (Seahorse Bioscience). Cells were plated 24 hours prior to measurements at a density of 40,000 cells per well within growth medium in a 24-well plate. The cells were then allowed to adhere for 24 hours (37° C., 5% CO2). Prior to the assay, the cells were washed with freshly prepared running media consisting of Seahorse XF Assay medium (Seahorse Bioscience, North America, USA), 10 mM glucose and 1 mM sodium pyruvate. The pH of the medium was adjusted to 7.4 with 1 M NaOH. The cells were then equilibrated for one hour at 37° C. without CO2. The compounds were injected during the assay; OCR and ECAR were measured at 9 minutes measurement intervals. The solutions of oligomycin, FCCP, XN, DXN and TXN were freshly prepared in running medium. The final concentrations in the wells were: 1 μM for oligomycin, 5 μM for XN, DXN and TXN and 2, 5, 8, 25 μM for the dose response experiments with DXN. Ethanol was added to the control wells not to exceed a final concentration of 0.1%. All the compounds were tested in quadruplicate on the 24-well plate. XN is highly non-polar and FBS can be used to dissolve XN. Thus, XN, DXN and TXN were first dissolved in ethanol and the resulting solutions were diluted 100-fold in running medium containing 1% of FBS. After a further 10-fold dilution into the media in wells, only 0.1% of FBS was present during OCR measurements. […] The concentration of oligomycin and the cell density used were selected based on preliminary experiments.\nSeahorse data were analyzed in SAS 9.2 (SAS Institute Inc., Cary, N.C.). To show a consistent baseline, OCR values (in pmol/min/mg protein) and ECAR values (in mpH/min/mg protein) for each value were divided prior to statistical analysis by the average of the four pre oligomycin treatment values (0, 8, 17, and 25 minutes) for the corresponding well and are shown as % pre oligomycin values. The original scale for OCR and for ECAR values was utilized for the OCR/ECAR ratio (in pMol/mpH). To account for repeated measures within wells over time, a repeated-measures-in-time design using ANOVA procedures in PROC MIXED was used. Fixed effects in the model were treatment (control, 2 μM DXN, 5 μM XN, 5 μM DXN, and 5 μM TXN for the compound study and control, 2, 5, 8, and 25 μM DXN for the DXN dosage study), time (0, 8, 17, 25, 34, 43, 52, 60, 69, 78, 86, and 95 minutes), and their interaction. The random effect was the experiment (5 experiments for the compound study and 3 experiments for the DXN dosage study). To account for repeated measures within wells over time, a first order homogeneous variance-covariance matrix [AR(1)] was fitted for each well. Using the ESTIMATE statement, a priori contrasts were constructed by comparing the changes in compound treated cells from the last two time points prior to compound treatment (average 52 and 60 minutes) to the changes in control cells during the same time period. This was done for each compound and dosage for 69, 78, 86, and 95 minutes separately and for all four time points combined. […] A P-value of 0.05 was considered statistically significant and is shown as star in the graphs (FIG. 5)."}}}
{"smiles": "N#CC(C#N)=NNc1ccc(OC(F)(F)F)cc1", "note": "[FCCP, carbonyl cyanide-4-(trifluoromethoxy)phenylhydrazone, reference compound]", "values": [{"measurement": "ratio value of aggregates to monomers (JC-1, percent of control)", "setting": "[1]", "result": "33.0±5.6", "unit": "%"}, {"measurement": "concentration from which the plasma membrane is depolarized", "setting": "plasma membrane", "result": "above 2.5 μM"}]}
{"smiles": "O=[N+]([O-])c1ccc(O)c([N+](=O)[O-])c1", "note": "[dinitrophenol, reference compound]", "values": [{"measurement": "LD50", "setting": "mice", "result": 45, "unit": "mg/kg"}]}
{"smiles": "CC[C@H]1/C=C/C=C/C[C@@H](C)[C@H](O)[C@@](C)(O)C(=O)[C@@H](C)[C@H](O)[C@@H](C)C(=O)[C@@H](C)[C@H](O)[C@@H](C)/C=C/C(=O)O[C@@H]2[C@H](C)[C@H](CC1)O[C@]1(CC[C@H](C)[C@H](C[C@@H](C)O)O1)[C@H]2C", "note": "[oligomycin, reference compound]", "values": [{"measurement": "residual OCR after oligomycin", "setting": "[2]; DXN dosage experiment", "result": "51.4±6.3", "unit": "%"}, {"measurement": "ECAR plateau after injection of oligomycin", "setting": "[2]; DXN dosage study", "result": "151.1±3.4", "unit": "%"}, {"measurement": "ECAR plateau after injection of oligomycin", "setting": "[2]; compound study", "result": "160.1±5.1", "unit": "%"}]}
